We go through 6 molecules from publication PMC11954892, “β-Carotene alleviates substrate inhibition caused by asymmetric cooperativity” (Nature Communications, 2025).

As usually defined, the Kd is the free concentration of one partner at which half of the binding sites on the other are occupied at equilibrium, for simple one-to-one binding. The low end stands for higher affinity, the high end for lower affinity.

For assay [1], the target named is T1, NbUGT72AY1 (Nicotiana benthamiana, UniProt A0A8K1ZRH3).
T1 sequence (A0A8K1ZRH3 1-477): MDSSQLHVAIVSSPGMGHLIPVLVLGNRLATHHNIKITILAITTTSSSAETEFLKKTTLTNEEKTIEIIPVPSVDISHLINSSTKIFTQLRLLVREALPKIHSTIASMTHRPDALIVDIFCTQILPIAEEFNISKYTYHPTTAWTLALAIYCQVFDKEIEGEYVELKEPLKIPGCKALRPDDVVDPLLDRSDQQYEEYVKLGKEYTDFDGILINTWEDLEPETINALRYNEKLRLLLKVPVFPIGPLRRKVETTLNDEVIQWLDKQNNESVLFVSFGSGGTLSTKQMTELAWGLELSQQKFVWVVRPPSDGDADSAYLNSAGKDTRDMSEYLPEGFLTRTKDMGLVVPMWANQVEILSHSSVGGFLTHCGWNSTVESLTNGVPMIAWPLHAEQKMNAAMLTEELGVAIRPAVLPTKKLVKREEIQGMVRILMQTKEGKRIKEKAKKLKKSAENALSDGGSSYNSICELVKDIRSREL
The assay can be described thus: HDX-MS; inhibition of UDPG glucohydrolase and relief of substrate inhibition (UDP-Glo, purified enzyme). Format: binding.

Assay [2] concerns the target T1, NbUGT72AY1. As to the kind of experiment: ITC ([…] stoichiometry); co-crystal structures; HDX-MS; enzyme kinetics. Format: binding.
In assay [3] the target is T1, NbUGT72AY1. The assay can be described thus: X-ray co-crystal structure (ternary complex with scopoletin). The assay is classed as binding.
Assay [4] has as its target T1, NbUGT72AY1. As to the kind of experiment: UDP-Glo glucosyltransferase assay, purified enzyme (reactivation of substrate-inhibited enzyme). Format: biochemical. On the set-up: N-terminal GST tag.
Assay [5] concerns the target T1, NbUGT72AY1. The assay can be described thus: HDX-MS; CD; inhibition of UDPG glucohydrolase and relief of substrate inhibition (UDP-Glo, purified enzyme). Format: binding.

For the molecule `CC1=C(/C=C/C(C)=C/C=C/C(C)=C/CO)C(C)(C)CCC1` [retinol], the “HDX-MS; inhibition of UDPG glucohydrolase and relief of substrate inhibition (UD)” value on NbUGT72AY1 [1] was “concentration-dependent reactivation of the substrate-inhibited enzyme by β-carotene, β-apo-8’-carotenal, and retinol was detected”.

`COc1cc2ccc(=O)oc2cc1O` [scopoletin] came in with a Kd on NbUGT72AY1 [2] of 4.5 ± 1.1 µM.

For `O=c1ccn([C@@H]2O[C@H](COP(=O)(O)OP(=O)(O)O[C@H]3O[C@H](CO)[C@@H](O)[C@H](O)[C@H]3F)[C@@H](O)[C@H]2O)c(=O)[nH]1` [UDP2FG], the “X-ray co-crystal structure (ternary complex with scopoletin)” value at NbUGT72AY1 [3] is “ternary complex V (NbUGT72AY1•scopoletin/UDP2FG: 9J9K) most of the protein residues are visible in the electron density maps”.

Regarding `CC(C)=CCC/C(C)=C/C=C/C(C)=C/C=C/C(C)=C/C=C/C=C(C)/C=C/C=C(C)/C=C/C=C(\C)CCC=C(C)C` [lycopene], the “UDP-Glo glucosyltransferase assay, purified enzyme (reactivation of substrate-in)” value on NbUGT72AY1 [4] is “Even acyclic lycopene shows a concentration-dependent reactivation of the substrate-inhibited enzyme”.

Regarding `CC1=C(/C=C/C(C)=C/C=C/C(C)=C/C=C/C=C(C)/C=C/C=C(\C)C=O)C(C)(C)CCC1` [β-apo-8’-carotenal], the “HDX-MS; inhibition of UDPG glucohydrolase and relief of substrate inhibition (UD)” value on NbUGT72AY1 [1] was “concentration-dependent reactivation of the substrate-inhibited enzyme by β-carotene, β-apo-8’-carotenal, and retinol was detected”.

As for `CC1=C(/C=C/C(C)=C/C=C/C(C)=C/C=C/C=C(C)/C=C/C=C(C)/C=C/C2=C(C)CCCC2(C)C)C(C)(C)CCC1` [β-carotene], the “HDX-MS; CD; inhibition of UDPG glucohydrolase and relief of substrate inhibition” value on NbUGT72AY1 [5] is reported as “with β-carotene being the most potent in suppressing glucohydrolase activity in accordance with its strong inhibition of SI”.
